The values that follow come from the supplement of paper PMC11061612.

Assay [1] relates to 22RV1 (Prostate Carcinoma). Description: combination Emax (second highest fraction inhibited in the dose matrix, 72 h); higher = more inhibition; extreme values may be limits of the assay. The procedure, abridged:
(§1)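 After 24 hours at 37°C and 5% CO2 in 1536-well plates, cells in DMEM/F12 or RPMI plus 10% FBS received two-drug dose matrices for 72 hours. Viability came from CellTiter-Glo 2.0 luminescence and was scaled as inhibition, anchored at 0 by vehicle wells and at 1 by blank wells. Combination Emax is taken as the second-highest inhibition in the matrix, and Bliss excess as the observed combination effect less EA + EB − EA·EB, with EA and EB the single-agent effects.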

Assay [2] concerns huH-1 (Hepatocellular Carcinoma). Described as above. The procedure, abridged:
as §1

Assay [3] has as its system SW620 (Colorectal Carcinoma). The assay is described as above. The procedure, abridged:
as §1

Assay [4] deals with SK-HEP-1 (Hepatocellular Carcinoma). The assay is described as above. The procedure, abridged: as §1
For assay [5], the system named is GCT (Other Solid Carcinomas). The description is as above. The procedure, abridged:
as §1

In assay [6] the test system is CA46 (Burkitt's Lymphoma). The assay is described as above. The procedure, abridged:
as §1

For assay [7], the system named is TE-10 (Esophageal Squamous Cell Carcinoma). The assay is described as above. The procedure, abridged:
as §1

Assay [8] relates to HCC70 (Breast Carcinoma). The assay is described as above. The procedure, abridged: as §1
Assay [9] relates to 769-P (Kidney Carcinoma). The assay is described as above. The procedure, abridged:
as §1

The test system of assay [10] is EPLC-272H (Other Solid Carcinomas). The description is as above. The procedure, abridged: as §1
For assay [11], the system named is G-402 (Other Solid Carcinomas). The description is as above. The procedure, abridged: as §1
In assay [12] the test system is TE-10 (Esophageal Squamous Cell Carcinoma). The assay can be described thus: Bliss excess, mean over the matrix (fraction); higher = more synergy. The procedure, abridged:
as §1
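Wherever Bliss excess, mean over the matrix is given: after 72 h of two-drug dosing.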

For the molecule `CC1(C)CCC(CN2CCN(c3ccc(C(=O)NS(=O)(=O)c4ccc(NCC5CCOCC5)c([N+](=O)[O-])c4)c(Oc4cnc5[nH]ccc5c4)c3)CC2)=C(c2ccc(Cl)cc2)C1` [Venetoclax] + C=CCn1c(=O)c2cnc(Nc3ccc(N4CCN(C)CC4)cc3)nc2n1-c1cccc(C(C)(C)O)n1 [AZD1775] (first compound max 1 µM, partner max 1 µM), the “combination Emax” value in assay [1] was 0.513; in [2], 0.501; in [3], 0.51; in assay [4] it was 0.34; in [5], 0.431; in [6] it was 0.738. The “combination Emax” value in assay [7] came to 0.856; in assay [8], 0.805; in [9], 0.744; in assay [10], 0.761; in assay [11], 0.435. Further, the Bliss excess in assay [12] amounted to 0.0301.

`CC1(C)CCC(CN2CCN(c3ccc(C(=O)NS(=O)(=O)c4ccc(NCC5CCOCC5)c([N+](=O)[O-])c4)c(Oc4cnc5[nH]ccc5c4)c3)CC2)=C(c2ccc(Cl)cc2)C1` [Venetoclax] + CCN(CCO)CCCOc1ccc2c(Nc3cc(CC(=O)Nc4cccc(F)c4)[nH]n3)ncnc2c1 [AZD2811] (first compound max 1 µM, 7x7, partner max 1 µM): the “combination Emax” value in assay [1] was determined as 0.232; in [2], 0.191; in [3] it was 0.229; in [4], 0.27; in assay [5] it was 0.273; in assay [6], 0.0318. Besides, the “combination Emax” value in assay [7] was 0.59; in assay [8], 0.616; in assay [9], 0.204; in assay [10] it was 0.371; in assay [11], 0.667. Also, the Bliss excess in assay [12] was -0.0502.

In the case of `CC1(C)CCC(CN2CCN(c3ccc(C(=O)NS(=O)(=O)c4ccc(NCC5CCOCC5)c([N+](=O)[O-])c4)c(Oc4cnc5[nH]ccc5c4)c3)CC2)=C(c2ccc(Cl)cc2)C1` [Venetoclax] + CN(C)CCCOc1ccc(-c2ccc3ncc4c(c3c2)n(C2CCOCC2)c(=O)n4C)cn1 [AZD0156] (first compound max 1 µM, 7x7, partner max 1 µM), the “combination Emax” value in [1] was determined as 0.423; in [2] it was 0.171; in assay [3], 0.196; in assay [4], 0.158; in assay [5], 0.289; in assay [6], 0. Besides, the “combination Emax” value in [7] amounted to 0.674; in assay [8], 0.395; in [9] it was 0.256; in [10], 0.395; in assay [11], 0.359. For the same molecule, in assay [12], the Bliss excess came out at 0.0071.

In the case of `CC1(C)CCC(CN2CCN(c3ccc(C(=O)NS(=O)(=O)c4ccc(NCC5CCOCC5)c([N+](=O)[O-])c4)c(Oc4cnc5[nH]ccc5c4)c3)CC2)=C(c2ccc(Cl)cc2)C1` [Venetoclax] + COc1cc(Nc2ncc3c(n2)-c2ccc(Cl)cc2C(c2c(F)cccc2OC)=NC3)ccc1C(=O)O [Alisertib] (first compound max 1 µM, 7x7, partner max 10 µM), the “combination Emax” value was found to be 0.329 in assay [1]; 0.257 in [2]; 0.387 in [3]; 0.349 in assay [4]; 0.463 in assay [5]; 0.436 in assay [6]. The “combination Emax” value worked out at 0.639 in [7]; 0.412 in [8]; 0.303 in assay [9]; 0.514 in assay [10]; 0.57 in assay [11]. Further, the Bliss excess in assay [12] is -0.0401.

Turning to `CC1(C)CCC(CN2CCN(c3ccc(C(=O)NS(=O)(=O)c4ccc(NCC5CCOCC5)c([N+](=O)[O-])c4)c(Oc4cnc5[nH]ccc5c4)c3)CC2)=C(c2ccc(Cl)cc2)C1` [Venetoclax] + C[C@@H]1COCCN1C2=NC(=NC(=C2)C3(CC3)[S@](=N)(=O)C)C4=C5C=CNC5=NC=C4 [AZD6738] (first compound max 1 µM, 7x7, partner max 10 µM), the “combination Emax” value in [1] amounted to 0.599; in assay [2], 0.597; in assay [3], 0.47; in assay [4], 0.28; in assay [5], 0.334; in assay [6], 0.506. Further, the “combination Emax” value in assay [7] is 0.827; in assay [8], 0.819; in [9], 0.815; in assay [10], 0.873; in [11], 0.705. The Bliss excess in assay [12] is -0.0361.

As for `CC1(C)CCC(CN2CCN(c3ccc(C(=O)NS(=O)(=O)c4ccc(NCC5CCOCC5)c([N+](=O)[O-])c4)c(Oc4cnc5[nH]ccc5c4)c3)CC2)=C(c2ccc(Cl)cc2)C1` [Venetoclax] + C[C@@H](Nc1cc(F)cc(F)c1)c1cc(C(=O)N(C)C)cc2c(=O)cc(N3CCOCC3)oc12 [AZD8186] (first compound max 1 µM, 7x7, partner max 3 µM), the “combination Emax” value stood at 0.322 in assay [1]; 0.152 in [2]; 0.0907 in assay [3]; 0.131 in assay [4]; 0.32 in assay [5]; 0.533 in assay [6]. Further, the “combination Emax” value in assay [7] worked out at 0.373; in assay [8] it was 0.532; in assay [9], 0.297; in assay [10], 0.419; in assay [11], 0.29. For the same molecule, the Bliss excess in [12] was -0.0428.

For the molecule `CC1(C)CCC(CN2CCN(c3ccc(C(=O)NS(=O)(=O)c4ccc(NCC5CCOCC5)c([N+](=O)[O-])c4)c(Oc4cnc5[nH]ccc5c4)c3)CC2)=C(c2ccc(Cl)cc2)C1` [Venetoclax] + Cc1cc2ncnn2cc1Nc1ncc2c(n1)n(C1CCOCC1)c(=O)n2C [AZD7648] (first compound max 1 µM, 7x7, partner max 10 µM), the “combination Emax” value in assay [1] was determined as 0.456; in assay [2] it was 0.162; in [3] it was 0.175; in assay [4], 0.219; in assay [5], 0.283; in assay [6], 0.132. The “combination Emax” value in assay [7] was 0.477; in assay [8], 0.399; in assay [9] it was 0.171; in assay [10], 0.514; in assay [11], 0.501. For the same molecule, the Bliss excess in [12] was -0.0068.

As for `CC1(C)CCC(CN2CCN(c3ccc(C(=O)NS(=O)(=O)c4ccc(NCC5CCOCC5)c([N+](=O)[O-])c4)c(Oc4cnc5[nH]ccc5c4)c3)CC2)=C(c2ccc(Cl)cc2)C1` [Venetoclax] + Cn1cnc2c(F)c(Nc3ccc(Br)cc3Cl)c(C(=O)NOCCO)cc21 [Selumetinib] (first compound max 1 µM, 7x7, partner max 3 µM), the “combination Emax” value in [1] came to 0.368; in assay [2] it was 0.114; in assay [3], 0.575; in [4] it was 0.234; in assay [5] it was 0.289; in [6], 0.403. The “combination Emax” value came to 0.415 in [7]; 0.591 in assay [8]; 0.292 in assay [9]; 0.506 in assay [10]; 0.2 in assay [11]. Besides, the Bliss excess in [12] is -0.0404.
